{"source": "patent US6689343B1", "about": "“Hemostatic and acid etch compositions containing sucralose” (Ultradent Products, Inc., priority 2002, dated 2004)", "test": "Storage stability of sucralose in the acidic composition", "type": "physicochemical", "conditions": "highly acidic in water"}
{"smiles": "OC[C@H]1O[C@H](O[C@]2(CCl)O[C@H](CCl)[C@@H](O)[C@@H]2O)[C@H](O)[C@@H](O)[C@H]1Cl", "note": "[sucralose, 1,6-dichloro-1,6-dideoxy-β-D-fructo-furanosyl-4-chloro-4-deoxy-α-D-galactopyranoside]", "values": [{"measurement": "stability in the presence of hemostatic or dental etching agents", "value": "stable"}]}
